Laboratory results reported in US10670605B2, “Cysteine reactive probes and uses thereof” (The Scripps Research Institute, priority 2015, dated 2020).

Assays:
GNB2L1 C182 (P63244) = GNB2L1 C182 (P63244) (Homo sapiens, UniProt P63244); test: Competitive isoTOP-ABPP, cell lysates; format: binding; settings: 500 μm, in-vitro_ramos_231;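 further: Heavy/light ratio DMSO over fragment-treated so higher means more cysteine engagement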
Procedure: (§1) TEV digests were pressure loaded onto a 250 μm (inner diameter) fused silica capillary column packed with C18 resin (Aqua 5 μm, Phenomenex). The samples were analyzed by multidimensional liquid chromatography tandem mass spectrometry (MudPIT), using an LTQ-Velos Orbitrap mass spectrometer (Thermo Scientific) coupled to an Agilent 1200-series quaternary pump. The peptides were eluted onto a biphasic column with a 5 μm tip (100 μm fused silica, packed with C18 (10 cm) and bulk strong cation exchange resin (3 cm, SCX, Phenomenex,)) in a 5-step MudPIT experiment, using 0%, 30%, 60%, 90%, and 100% salt bumps of 500 mM aqueous ammonium acetate and using a gradient of 5-100% buffer B in buffer A (buffer A: 95% water, 5% acetonitrile, 0.1% formic acid; buffer B: 5% water, 95% acetonitrile, 0.1% formic acid) as has been described in Weerapana et al. Nat Protoc 2:1414-1425 (2007). Data was collected in data-dependent acquisition mode with dynamic exclusion enabled (20 s, repeat of 2). One full MS (MS1) scan (400-1800 m/z) was followed by 30 MS2 scans (ITMS) of the nth most abundant ions.
(§2) The ratios of heavy/light for each unique peptide (DMSO/compound treated; isoTOP-ABPP ratios, R values) were quantified with in-house CIMAGE software, using default parameters (3 ms s per peak and signal to noise threshold 2.5). Site-specific engagement of electrophilic fragments was assessed by blockade of IA-alkyne probe labeling. […] Ratios for unique peptide entries were calculated for each experiment; overlapping peptides with the same modified cysteine (e.g. different charge states, MudPIT chromatographic steps or tryptic termini) were grouped together and the median ratio was reported as the final ratio (R). The peptide ratios reported by CIMAGE were further filtered to ensure the removal or correction of low quality ratios in each individual dataset. The quality filters applied were the following: removal of half tryptic peptides; for ratios with high standard deviations from the median (90% of the median or above) the lowest ratio was taken instead of the median; removal of peptides with R=20 and only a single ms2 event triggered during the elution of the parent ion; manual annotation of all the peptides with ratios of 20, removing any peptides with low-quality elution profiles that remained after the previous curation steps. Proteome reactivity values for individual fragments were computed as the percentage of the total quantified cysteine-containing peptides with R values≥4 (defined as liganded cysteines) for each replicate experiment and the final proteome reactivity value was calculated as the mean for all replicate experiments for each fragment from both MDA-MB-231 and Ramos cellular proteomes.
(§3) Biological replicates of the same compound and cell-line were averaged if the standard deviation was below 60% of the mean; otherwise the lowest value of the ratio set was taken.

GSTP1 C48 (P09211) = GSTP1 C48 (P09211) (Homo sapiens, UniProt P09211); test: Competitive isoTOP-ABPP, cell lysates; format: binding; settings: 500 μm, in-vitro_ramos_231;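 further: Heavy/light ratio DMSO over fragment-treated so higher means more cysteine engagement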
Procedure: as §1, §2, §3

MLTK C22 (Q9NYL2) = MLTK C22 (Q9NYL2) (Homo sapiens, UniProt Q9NYL2); test: Competitive isoTOP-ABPP, cell lysates; format: binding; settings: 500 μm, in-vitro_ramos_231
Procedure: as §1, §2, §3

PDIA6 C55 (Q15084) = molecular target: T1, PDIA6 C55 (Q15084) (Homo sapiens, UniProt Q15084); test: Competitive isoTOP-ABPP, cell lysates; format: binding; settings: 500 μm, in-vitro_ramos_231
T1 sequence (Q15084 20-440): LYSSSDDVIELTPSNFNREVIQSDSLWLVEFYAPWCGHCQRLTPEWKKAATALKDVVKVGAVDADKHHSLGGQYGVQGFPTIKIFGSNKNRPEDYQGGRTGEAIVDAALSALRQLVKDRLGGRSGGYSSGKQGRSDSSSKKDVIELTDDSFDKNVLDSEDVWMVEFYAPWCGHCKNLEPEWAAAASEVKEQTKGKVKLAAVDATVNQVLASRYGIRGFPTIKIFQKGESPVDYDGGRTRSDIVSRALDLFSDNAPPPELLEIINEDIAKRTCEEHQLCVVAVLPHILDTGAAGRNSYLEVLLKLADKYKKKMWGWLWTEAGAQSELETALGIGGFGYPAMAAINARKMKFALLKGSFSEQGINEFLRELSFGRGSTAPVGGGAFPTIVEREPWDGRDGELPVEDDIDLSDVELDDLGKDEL
Procedure: as §1, §2, §3

PRMT1 C109 (Q99873) = PRMT1 C109 (Q99873) (Homo sapiens, UniProt Q99873); test: Competitive isoTOP-ABPP, cell lysates; format: binding; settings: 500 μm, in-vitro_ramos_231;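 further: Heavy/light ratio DMSO over fragment-treated so higher means more cysteine engagement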
Procedure: as §1, §2, §3

UBE2L3 C86 (P68036) = UBE2L3 C86 (P68036) (Homo sapiens, UniProt P68036); test: Competitive isoTOP-ABPP, cell lysates; format: binding; settings: 500 μm, in-vitro_ramos_231;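 further: Heavy/light ratio DMSO over fragment-treated so higher means more cysteine engagement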
Procedure: as §1, §2, §3

XPO1 C34 (O14980) = XPO1 C34 (O14980) (Homo sapiens, UniProt O14980); test: Competitive isoTOP-ABPP, cell lysates; format: binding; settings: 500 μm, in-vitro_ramos_231
Procedure: as §1, §2, §3

ACAT1 C119 (P24752) = molecular target: T2, ACAT1 C119 (P24752) (Homo sapiens, UniProt P24752); test: Competitive isoTOP-ABPP, cell lysates; format: binding; settings: 500 μm, in-vitro_ramos_231
T2 sequence (P24752 34-427): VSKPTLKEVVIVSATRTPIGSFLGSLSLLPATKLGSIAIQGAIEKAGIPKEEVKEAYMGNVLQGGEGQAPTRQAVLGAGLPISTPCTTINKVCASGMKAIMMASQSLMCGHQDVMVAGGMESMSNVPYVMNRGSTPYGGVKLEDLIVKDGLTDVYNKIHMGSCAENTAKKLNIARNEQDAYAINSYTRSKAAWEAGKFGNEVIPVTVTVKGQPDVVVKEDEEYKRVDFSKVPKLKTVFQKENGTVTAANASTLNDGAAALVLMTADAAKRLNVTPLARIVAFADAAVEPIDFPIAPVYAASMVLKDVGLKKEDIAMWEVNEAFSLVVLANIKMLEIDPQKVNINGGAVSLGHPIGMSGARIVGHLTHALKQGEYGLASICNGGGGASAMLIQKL

ACAT1 C196 (P24752) = molecular target: T3, ACAT1 C196 (P24752) (Homo sapiens, UniProt P24752); test: Competitive isoTOP-ABPP, cell lysates; format: binding; settings: 500 μm, in-vitro_ramos_231
T3 sequence (P24752 34-427): T2 sequence (P24752 34-427)

ACAT1 C413 (P24752) = molecular target: T4, ACAT1 C413 (P24752) (Homo sapiens, UniProt P24752); test: Competitive isoTOP-ABPP, cell lysates; format: binding; settings: 500 μm, in-vitro_ramos_231
T4 sequence (P24752 34-427): T2 sequence (P24752 34-427)

ACAT1 C126 (P24752) = molecular target: T5, ACAT1 C126 (P24752) (Homo sapiens, UniProt P24752); test: Competitive isoTOP-ABPP, cell lysates; format: binding; settings: 500 μm, in-vitro_ramos_231
T5 sequence (P24752 34-427): T2 sequence (P24752 34-427)

O00541_C272 = O00541_C272 (Homo sapiens, UniProt O00541); test: Competitive isoTOP-ABPP, cell lysates; format: binding; settings: 500 μm, in-vitro_ramos_231
primary human T cells = test: T cell activation markers CD25 and CD69 (flow cytometry); format: cell-based; settings: 2.5 mM, 8 h
Procedure: 96-well plates were coated with anti-CD3 (1:200; BioXcell) and anti-CD28 (1:500; 302933; BioLegend) in PBS (100 μL/well) overnight at 4° C. The plates were then washed twice with PBS and to each well was added 500,000 primary T cells in 100 μL of RPMI supplemented with 10% FBS, glutamine, and Pen-Strep. Cells were then treated with 100 μL of media containing compound at the indicated concentrations (final well volume of 200 μL). Cells were left at 37° C. in a 5% CO2 incubator for the indicated periods of time and harvested by centrifugation (500 g, 8 min, 4° C.), followed by washing with PBS.
Flow cytometry analysis of cell surface antigens was performed with the following antibodies: Pacific Blue-conjugated anti-CD8 (1:25 dilution; clone RPA-T8; BD Biosciences), APC-conjugated anti-CD4 (1:25 dilution; clone RPA-T4; eBioscience), phycoerythrin-conjugated anti-CD25 (1:25 dilution; clone BC96; eBioscience or PC61; BioLegend (PKCθ studies)), FITC-conjugated anti-CD69 (1:25 dilution; clone FN50; eBioscience). All antibodies were diluted in 1% FBS in PBS, and 50 μL of the stain solution was added to each well. […] Flow cytometry acquisition was performed with BD FACSDivam-driven BD™ LSR II flow cytometer (Becton, Dickinson and Company). Data was then analyzed with FlowJo software (Treestar Inc.). Data represent mean±SE for four-five experiments per group.

[1] = system: intracellular GSH in primary human T cells; test: Quantification of cellular glutathione (GSH) levels; format: cell-based; settings: DMF 50 μM 2 h; BSO 2.5 mM 4 h
Procedure: Primary human T cells (2.5 million cells/mL, 20 mL per condition) were treated as indicated, harvested by centrifugation (500 g, 8 min, 4° C.), and washed twice with PBS. To the cell pellet was added 75 μL of lysis buffer. […] Protein concentrations were adjusted to at least 5 mg/mL and the assay performed according to manufacturer's instructions (Sigma-Aldrich, CS 1020). Data represent mean±SE for two biological replicates.

[2] = system: Cys residues in primary human T cells; test: isoTOP-ABPP of compound-treated primary human T cells; format: cell-based; settings: MMF 50 μM 4 h; BSO 2.5 mM 4 h

Row | isoTOP-ABPP reactivity profile ratio, P63244_C182 (GNB2L1 C182 (P63244)) | isoTOP-ABPP reactivity profile ratio, P09211_C48 (GSTP1 C48 (P09211)) | isoTOP-ABPP reactivity profile ratio, Q9NYL2_C22 (MLTK C22 (Q9NYL2)) | isoTOP-ABPP reactivity profile ratio, Q15084_C55 (PDIA6 C55 (Q15084)) | isoTOP-ABPP reactivity profile ratio, Q99873_C109 (PRMT1 C109 (Q99873)) | isoTOP-ABPP reactivity profile ratio, P68036_C86 (UBE2L3 C86 (P68036)) | isoTOP-ABPP reactivity profile ratio, O14980_C34 (XPO1 C34 (O14980)) | isoTOP-ABPP reactivity profile ratio, P24752_C119 (ACAT1 C119 (P24752)) | isoTOP-ABPP reactivity profile ratio, P24752_C196 (ACAT1 C196 (P24752)) | isoTOP-ABPP reactivity profile ratio, P24752_C413 (ACAT1 C413 (P24752)) | isoTOP-ABPP reactivity profile ratio, P24752_C126 (ACAT1 C126 (P24752)) | isoTOP-ABPP reactivity profile ratio, O00541_C272 (O00541_C272) | SMILES | T cell activation (CD25) (primary human T cells) | cellular GSH content [1] | alteration of the ~40 DMF-sensitive Cys residues [2]
1 | 1.0 | 1.4 | 1.2 | 0.9 | 1.0 | 1.0 | 0.9 | 0.9 | 1.0 | 1.0 | 0.9 | 1.0 | CCCN(C(=O)CCl)c1c(N)n(CCC)c(=O)[nH]c1=O [compound 55] |  |  | 
2 |  |  |  |  |  |  |  |  |  |  |  |  | CCCCS(=N)(=O)CCC(N)C(=O)O (stereo not drawn) [BSO, buthionine sulfoximine] | no effect | Significant reductions | none
